Measurements published in patent US5331006A, “Amino acid analogs as CCK antagonists” (Warner-Lambert Company, priority 1991, dated 1994).
Read-outs that look alike come from different tables or passages of the source.

Target: T1, CCK receptor sites (Mus musculus, UniProt P56481)
T1 construct: from tissue; host or cells: cerebral cortex membranes of male CFLP mice
T1 sequence (P56481 1-453): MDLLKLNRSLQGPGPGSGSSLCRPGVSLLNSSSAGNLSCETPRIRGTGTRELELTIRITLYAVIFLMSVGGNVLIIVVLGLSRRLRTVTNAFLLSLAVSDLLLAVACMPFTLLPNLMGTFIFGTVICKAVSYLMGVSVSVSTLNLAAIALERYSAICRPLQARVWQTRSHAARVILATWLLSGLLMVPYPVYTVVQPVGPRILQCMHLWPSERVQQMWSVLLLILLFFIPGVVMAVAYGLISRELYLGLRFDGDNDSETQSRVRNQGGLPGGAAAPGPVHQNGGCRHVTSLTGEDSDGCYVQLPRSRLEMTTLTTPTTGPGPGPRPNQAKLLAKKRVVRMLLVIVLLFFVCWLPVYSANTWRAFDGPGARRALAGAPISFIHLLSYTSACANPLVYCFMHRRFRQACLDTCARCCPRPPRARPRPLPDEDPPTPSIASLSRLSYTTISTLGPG
Assay: CCK receptor binding, displacement of tritiated pentagastrin from mouse cerebral cortex membranes
Set-up: key: IA = Inactive in respect to this binding assay
Conditions: 2 nM tritiated pentagastrin, mouse cerebral cortical membranes, Ki from IC50 by Cheng-Prusoff
Method: The biological activity of compounds of the present invention was evaluated employing an initial screening test which rapidly and accurately measured the binding of the tested compound to known CCK receptor sites. […] (See Hays, et al, Neuropeptides 1:53-62, 1980; and Satuer, et al, Science 208:1155-1156, 1980.)
In this screening test the cerebral cortices taken from male CFLP mice weighing between 30 to 40 g were dissected on ice, weighed, and homogenized in 10 volumes of 50 mM Tris-HCl buffer (pH 7.4 at 0° to 4° C.). The resulting suspension was centrifuged, the supernate was discarded, and the pellet was washed by resuspension in Tris-HCl buffer followed by recentrifugation. The final pellet was resuspended in 20 volumes of […] Hepes buffer (pH 7.2 at 23° C.) containing 130 mM NaCl, […] KCl, […] MgCl2, […] EDTA, 5 mg/mL bovine albumin, and bacitracin (0.25 mg/mL).
In saturation studies, cerebral cortical membranes were incubated at 23° C. for 120 minutes in a final volume of 500 μL of Hepes incubation buffer (pH 7.2) together with 0.2-20 nM tritiated-pentagastrin (Amersham International, England).
In the displacement experiments, membranes were incubated with a single concentration (2 nM) of ligand, together with increasing concentrations of competitive test compound. In each case, the nonspecific binding was defined as that persisting in the presence of the unlabeled octapeptide CCK26-33 (10^-6 M).
Following incubation, radioactivity bound to membranes was separated from that free in solution by rapid filtration through Whatman GF/B filters and washed three times with 4 mL of ice cold Tris-HCl buffer. Filters from samples incubated with tritiated pentagastrin were placed in polyethylene vials with 4 mL of scintillation cocktail, and the radioactivity was estimated by liquid scintillation spectrometry (efficiency 47% to 52%).
The specific binding to CCK receptor sites was defined as the total bound tritiated pentagastrin minus the amount of tritiated pentagastrin bound in the presence of 10^-6 octapeptide, CCK26-33.
Saturation curves for specific tritiated pentagastrin binding to mouse cortical membranes were analyzed by the methods of Scatchard (Ann. New York Acad. Sci. 51:660-672, 1949; Hill, J. Physiol. 40:IV-VIII, 1910) to provide estimates for the maximum number of binding sites (βmax)and the equilibrium dissociation constant (Ka).
In displacement experiments, inhibition curves were analyzed by either logit-log plots or the iterative curve fitting computer program ALLFIT (DeLean, Munson, and Redbard, 1978) to provide estimates of the IC50 and nH (apparent Hill coefficient) values). IC50 values were defined as the concentration of test compound required to produce 50% inhibition of specific binding).
The inhibition constant (Ki) of the test compound was then calculated according to the Cheng-Prusoff equation: [formula] where [L] is the concentration of radiolabel and Ka is the equilibrium dissociation constant.
The Ki values for several representative compounds of the present invention are present in Table II.

Row | Ki (read-out: Ki) | Ki | Structure (SMILES)
1 | 580 nM | – | CC(Cc1c[nH]c2ncccc12)(NC(=O)OC1C2CC3CC(C2)CC1C3)C(=O)NC(CO)C(O)c1ccccc1 (stereo not shown) [drawing 66 (Diast I)]
2 | 43 nM | – | CC(Cc1c[nH]c2ncccc12)(NC(=O)OC1C2CC3CC(C2)CC1C3)C(=O)NC(CO)C(O)c1ccccc1 (stereo not shown) [drawing 66 (Diast II)]
3 | – | IA | CC(Cc1c[nH]c2ccncc12)(NC(=O)OC1C2CC3CC(C2)CC1C3)C(=O)NC(CO)C(O)c1ccccc1 (stereo not shown) [drawing 67]
4 | 2300 nM | – | CC(Cc1c[nH]c2ccncc12)(NC(=O)OC1C2CC3CC(C2)CC1C3)C(=O)NC(CO)C(O)c1ccccc1 (stereo not shown) [drawing 69]
